Consider two compounds from US9596874B2, “Bitter taste masking compositions and method of masking bitter taste” (Givaudan S.A., priority 2010, dated 2017).

A short description of this test: Panel tasting of KCl/NaCl solutions in water. Conditions: for masking of the off-notes of KCl: 5000 ppm sugar alcohol in water with 1600 ppm KCl and 800 ppm NaCl, panel of professional tasters. How it is done: Three solutions were prepared: • A 1600 ppm of KCl and 800 ppm of NaCl in water • B 1600 ppm of KCl and 800 ppm of NaCl in water containing 5000 ppm of mannitol • C 1600 ppm of KCl and 800 ppm of NaCl in water containing 5000 ppm of dulcitol The solutions were compared by a panel of professional tasters.

In the case of `OC[C@@H](O)[C@@H](O)[C@H](O)[C@H](O)CO` [mannitol, Mannitol], the “masking of the off-notes of KCl” value was “mask the off-notes KCl well”.
On to `OC[C@@H](O)[C@H](O)[C@H](O)[C@@H](O)CO` [dulcitol, Galactitol (=dulcitol)], for which the “masking of the off-notes of KCl” value is recorded as “mask the off-notes KCl well”. In addition, the “masking compared with mannitol” value (5000 ppm dulcitol vs 5000 ppm mannitol, 1600 ppm KCl and 800 ppm NaCl in water, panel) is listed as “noticeably better in masking”. Under “5000 ppm dulcitol, 1600 ppm KCl and 800 ppm NaCl in water, panel”, the taste perception entry is “more positive, described as ‘rounded-off’, perception”.
